# Laboratory results from patent publication US20080194585A1, “Fungicidal Pyrazine Derivatives” (priority 2005, published 2008).
# Marks after values point to notes of the source that are not given here.
# What was measured:
# [1] = tested on: Colletotrichum orbiculare; assay: Test B: cucumber Colletotrichum anthracnose, preventive spray on cucumber seedlings
# Pythium aphanidermatum = assay: Test A: bluegrass pythium blight, preventive spray on bluegrass seedlings
# [2] = tested on: Puccinia recondita f. sp. tritici; assay: Test K: wheat leaf rust, preventive spray on wheat seedlings
# Septoria nodorum = assay: Test H: wheat glum blotch, preventive spray on wheat seedlings
# Method: (the causal agent of wheat glum blotch) and incubated in a saturated atmosphere at 20° C. for 48 h, and then moved to a growth chamber at 22° C. for 5 days, after which disease ratings were made.
# Rhizoctonia oryzae = assay: Test G: turf brown patch, preventive spray on creeping bent grass seedlings
# Method: (the causal agent of turf brown patch) and incubated in a saturated atmosphere at 27° C. for 24 h, and then moved to a growth chamber at 27° C. for 5 days, after which disease ratings were made.
# Phytophthora infestans = assay: whole plant or invertebrate; assay type: in vivo
# Septoria tritici = assay: Test J: wheat leaf blotch, preventive spray on wheat seedlings; assay type: in vivo
# From the text: A dash (-) indicates no test results.
# Botrytis cinerea = assay: Test E: tomato botrytis, preventive spray on tomato seedlings
# Plasmopara viticola = assay: Test D: grape downy mildew, spray after inoculation of grape seedlings; assay type: in vivo
# From the text: Upon removal, disease ratings were made. […] A dash (-) indicates no test results.
# [3] = tested on: Erysiphe graminis f. sp. tritici; assay: Test L: wheat powdery mildew, preventive spray on wheat seedlings
# Sclerotinia sclerotiorum = assay: Test C: cucumber white mold, preventive spray on cucumber seedlings
# fusarium graminearium = assay: Test I: wheat head scab, preventive spray on wheat seedlings; settings: 200 ppm; 100 = 100% disease control, 0 = no control relative to controls
# Method: (the causal agent of wheat head scab) and incubated in a saturated atmosphere at 20° C. for 72 h, and then moved to a growth chamber at 22° C. for 5 days, after which disease ratings were made.
# [4] = 200 ppm, 100 = 100% disease control, 0 = no control relative to controls
smiles,measurement,setting,value
"Cc1ccc(-c2nc(Cl)c(-c3c(F)cccc3F)n(CC(C)C)c2=O)nc1 [Compound 209, 5-Chloro-6-(2,6-difluorophenyl)-1-(2-methylpropyl)-3-(5-methyl-2-pyridinyl)-2(1H)-pyrazinone]",pest or weed control at 200 ppm,"[1]; Colletotrichum orbiculare, in Cucumis sativus, 144 h, read-out: Test B disease control rating, 200 ppm",54%
same,pest or weed control at 200 ppm,"Pythium aphanidermatum; Pythium aphanidermatum, 120 h, read-out: Test A disease control rating",56%
same,pest or weed control at 200 ppm,"[2]; Puccinia recondita, in Triticum aestivum, 192 h, read-out: Test K disease control rating",85%
same,pest or weed control at 200 ppm,"Septoria nodorum; Parastagonospora nodorum, in Triticum aestivum, topical, 168 h, read-out: Test H disease control rating, 200 ppm",0%
same,pest or weed control at 200 ppm,"Rhizoctonia oryzae; Waitea circinata, in Agrostis stolonifera, topical, 144 h, read-out: Test G disease control rating, 200 ppm",34%
same,pest or weed control at 200 ppm,"Phytophthora infestans; Phytophthora infestans, in Solanum lycopersicum, topical, 144 h, read-out: Test F disease control rating",0%
same,pest or weed control at 200 ppm,"Septoria tritici; Zymoseptoria tritici, 528 h, 200 ppm, read-out: Test J disease control rating",96%
same,pest or weed control at 200 ppm,"Botrytis cinerea; Botrytis cinerea, in Solanum lycopersicum, topical, 72 h, read-out: Test E disease control rating",99%
same,pest or weed control at 200 ppm,"Plasmopara viticola; Plasmopara viticola, 168 h, 200 ppm, read-out: Test D disease control rating",8%
same,pest or weed control at 200 ppm,"[3]; Blumeria graminis, in Triticum aestivum, 168 h, read-out: Test L disease control rating, 200 ppm",0%
same,pest or weed control at 200 ppm,"Sclerotinia sclerotiorum; Sclerotinia sclerotiorum, in Cucumis sativus, 168 h, read-out: Test C disease control rating, 200 ppm",0%
CCC(C)n1c(-c2c(F)cccc2F)c(Cl)nc(-n2cncn2)c1=O (centres unmarked) [compound 32],Test B disease control rating,[1]; 200 ppm,0%
same,Test A disease control rating,Pythium aphanidermatum; 200 ppm,0%
same,Test K disease control rating,[2]; 200 ppm,100%
same,Test H disease control rating,Septoria nodorum; 200 ppm,100%
same,Test G disease control rating,Rhizoctonia oryzae; 200 ppm,92%
same,Test F disease control rating,Phytophthora infestans; 200 ppm,0%
same,Test J disease control rating,Septoria tritici; 200 ppm,32%
same,Test E disease control rating,Botrytis cinerea; 200 ppm,100%
same,Test D disease control rating,Plasmopara viticola; 200 ppm,15%
same,Test L disease control rating,[3]; 200 ppm,0%
same,Test C disease control rating,Sclerotinia sclerotiorum; 200 ppm,95%
CC(C)n1c(-c2c(F)cccc2F)c(Cl)nc(-n2cncn2)c1=O [compound 33],Test B disease control rating,[1]; 200 ppm,0%
same,Test A disease control rating,Pythium aphanidermatum; 200 ppm,0%
same,Test K disease control rating,[2]; 200 ppm,100%
same,Test H disease control rating,Septoria nodorum; 200 ppm,100%
same,Test G disease control rating,Rhizoctonia oryzae; 200 ppm,100%
same,Test F disease control rating,Phytophthora infestans; 200 ppm,0%
same,Test J disease control rating,Septoria tritici; 200 ppm,100%
same,Test E disease control rating,Botrytis cinerea; 200 ppm,100%
same,Test D disease control rating,Plasmopara viticola; 200 ppm,34%
same,Test L disease control rating,[3]; 200 ppm,0%
same,Test C disease control rating,Sclerotinia sclerotiorum; 200 ppm,16%
CCCn1c(-c2c(F)cccc2F)c(Cl)nc(-n2cncn2)c1=O [compound 34],Test B disease control rating,[1]; 200 ppm,0%
same,Test A disease control rating,Pythium aphanidermatum; 200 ppm,0%
same,Test K disease control rating,[2]; 200 ppm,99%
same,Test H disease control rating,Septoria nodorum; 200 ppm,100%
same,Test G disease control rating,Rhizoctonia oryzae; 200 ppm,100%
same,Test F disease control rating,Phytophthora infestans; 200 ppm,26%
same,Test J disease control rating,Septoria tritici; 200 ppm,97%
same,Test E disease control rating,Botrytis cinerea; 200 ppm,100%
same,Test D disease control rating,Plasmopara viticola; 200 ppm,10%
same,Test L disease control rating,[3]; 200 ppm,89%
same,Test C disease control rating,Sclerotinia sclerotiorum; 200 ppm,16%
CC(C)CCn1c(-c2c(F)cccc2F)c(Cl)nc(-n2cccn2)c1=O [compound 35],Test B disease control rating,[1]; 200 ppm,0%
same,Test A disease control rating,Pythium aphanidermatum; 200 ppm,0%
same,Test K disease control rating,[2]; 200 ppm,88%
same,Test H disease control rating,Septoria nodorum; 200 ppm,100%
same,Test G disease control rating,Rhizoctonia oryzae; 200 ppm,90%
same,Test F disease control rating,Phytophthora infestans; 200 ppm,0%
same,Test J disease control rating,Septoria tritici; 200 ppm,100%
same,Test E disease control rating,Botrytis cinerea; 200 ppm,100%
same,Test D disease control rating,Plasmopara viticola; 200 ppm,5%
same,Test L disease control rating,[3]; 200 ppm,97%
same,Test C disease control rating,Sclerotinia sclerotiorum; 200 ppm,0%
C=CCn1c(-c2c(F)cccc2F)c(Cl)nc(-n2cccn2)c1=O [compound 58],Test B disease control rating,[1]; 200 ppm,99%
same,Test A disease control rating,Pythium aphanidermatum; 200 ppm,0%
same,Test K disease control rating,[2]; 200 ppm,100%
same,Test H disease control rating,Septoria nodorum; 200 ppm,100%
same,Test G disease control rating,Rhizoctonia oryzae; 200 ppm,92%
same,Test F disease control rating,Phytophthora infestans; 200 ppm,0%
same,Test J disease control rating,Septoria tritici; 200 ppm,98%
same,Test E disease control rating,Botrytis cinerea; 200 ppm,100%
same,Test D disease control rating,Plasmopara viticola; 200 ppm,47%
same,Test L disease control rating,[3]; 200 ppm,99%
same,Test C disease control rating,Sclerotinia sclerotiorum; 200 ppm,0%
CC(C)Cn1c(-c2c(F)cccc2F)c(Cl)nc(-c2ccncc2)c1=O [compound 84],Test B disease control rating,[1]; 40 ppm (*),0* %
same,Test A disease control rating,Pythium aphanidermatum; 40 ppm (*),0* %
same,Test K disease control rating,[2]; 40 ppm (*),0* %
same,Test H disease control rating,Septoria nodorum; 40 ppm (*),0* %
same,Test G disease control rating,Rhizoctonia oryzae; 40 ppm (*),0* %
same,Test F disease control rating,Phytophthora infestans; 40 ppm (*),0* %
same,Test J disease control rating,Septoria tritici; 40 ppm (*),20* %
same,Test E disease control rating,Botrytis cinerea; 40 ppm (*),0* %
same,Test D disease control rating,Plasmopara viticola; 40 ppm (*),5* %
same,Test L disease control rating,[3]; 40 ppm (*),0* %
same,Test C disease control rating,Sclerotinia sclerotiorum; 40 ppm (*),0* %
COCCn1c(-c2c(F)cccc2F)c(Cl)nc(-n2cccn2)c1=O [compound 95],Test B disease control rating,[1]; 200 ppm,0%
same,Test A disease control rating,Pythium aphanidermatum; 200 ppm,0%
same,Test K disease control rating,[2]; 200 ppm,94%
same,Test H disease control rating,Septoria nodorum; 200 ppm,100%
same,Test G disease control rating,Rhizoctonia oryzae; 200 ppm,68%
same,Test F disease control rating,Phytophthora infestans; 200 ppm,0%
same,Test J disease control rating,Septoria tritici; 200 ppm,95%
same,Test E disease control rating,Botrytis cinerea; 200 ppm,99%
same,Test D disease control rating,Plasmopara viticola; 200 ppm,92%
same,Test L disease control rating,[3]; 200 ppm,0%
same,Test C disease control rating,Sclerotinia sclerotiorum; 200 ppm,0%
CC(C)Cn1c(-c2c(F)cccc2F)c(Cl)nc(-c2nccs2)c1=O [compound 101],Test B disease control rating,[1]; 40 ppm (*),0* %
same,Test A disease control rating,Pythium aphanidermatum; 200 ppm,0%
same,Test K disease control rating,[2]; 40 ppm (*),0* %
same,Test H disease control rating,Septoria nodorum; 40 ppm (*),0* %
same,Test G disease control rating,Rhizoctonia oryzae; 40 ppm (*),0* %
same,Test F disease control rating,Phytophthora infestans; 200 ppm,0%
same,Test J disease control rating,Septoria tritici; 40 ppm (*),53* %
same,Test E disease control rating,Botrytis cinerea; 40 ppm (*),0* %
same,Test D disease control rating,Plasmopara viticola; 200 ppm,15%
same,Test L disease control rating,[3]; 40 ppm (*),0* %
same,Test C disease control rating,Sclerotinia sclerotiorum; 200 ppm,0%
CC(C)Cn1c(-c2cc(F)cc(F)c2F)c(Cl)nc(-n2cncn2)c1=O [compound 138],Test B disease control rating,[1]; 100 ppm (#),0# %
same,Test A disease control rating,Pythium aphanidermatum; 100 ppm (#),0# %
same,Test K disease control rating,[2]; 100 ppm (#),0# %
same,Test H disease control rating,Septoria nodorum; 100 ppm (#),0# %
same,Test G disease control rating,Rhizoctonia oryzae; 100 ppm (#),55# %
same,Test F disease control rating,Phytophthora infestans; 100 ppm (#),0# %
same,Test J disease control rating,Septoria tritici; 100 ppm (#),46# %
same,Test E disease control rating,Botrytis cinerea; 100 ppm (#),83# %
same,Test D disease control rating,Plasmopara viticola; 100 ppm (#),12# %
same,Test L disease control rating,[3]; 100 ppm (#),0# %
same,Test C disease control rating,Sclerotinia sclerotiorum; 100 ppm (#),24# %
CC(C)Cn1c(-c2ccccc2C(F)(F)F)c(Cl)nc(-n2cncn2)c1=O [compound 140],Test B disease control rating,[1]; 200 ppm,0%
same,Test A disease control rating,Pythium aphanidermatum; 200 ppm,0%
same,Test K disease control rating,[2]; 200 ppm,0%
same,Test H disease control rating,Septoria nodorum; 200 ppm,0%
same,Test G disease control rating,Rhizoctonia oryzae; 200 ppm,34%
same,Test F disease control rating,Phytophthora infestans; 200 ppm,0%
same,Test J disease control rating,Septoria tritici; 200 ppm,41%
same,Test E disease control rating,Botrytis cinerea; 200 ppm,99%
same,Test D disease control rating,Plasmopara viticola; 200 ppm,12%
same,Test L disease control rating,[3]; 200 ppm,0%
same,Test C disease control rating,Sclerotinia sclerotiorum; 200 ppm,83%
CC(C)Cn1c(-c2ccccc2C(F)(F)F)c(Cl)nc(-n2cccn2)c1=O [compound 141],Test B disease control rating,[1]; 200 ppm,96%
same,Test A disease control rating,Pythium aphanidermatum; 200 ppm,0%
same,Test K disease control rating,[2]; 200 ppm,60%
same,Test H disease control rating,Septoria nodorum; 200 ppm,73%
same,Test G disease control rating,Rhizoctonia oryzae; 200 ppm,96%
same,Test F disease control rating,Phytophthora infestans; 200 ppm,0%
same,Test J disease control rating,Septoria tritici; 200 ppm,99%
same,Test E disease control rating,Botrytis cinerea; 200 ppm,92%
same,Test D disease control rating,Plasmopara viticola; 200 ppm,12%
same,Test L disease control rating,[3]; 200 ppm,79%
same,Test C disease control rating,Sclerotinia sclerotiorum; 200 ppm,63%
CC(C)Cn1c(-c2ccc(F)cc2)c(Cl)nc(-n2cncn2)c1=O [compound 142],Test B disease control rating,[1]; 200 ppm,16%
same,Test A disease control rating,Pythium aphanidermatum; 200 ppm,64%
same,Test K disease control rating,[2]; 200 ppm,27%
same,Test H disease control rating,Septoria nodorum; 200 ppm,100%
same,Test G disease control rating,Rhizoctonia oryzae; 200 ppm,0%
same,Test F disease control rating,Phytophthora infestans; 200 ppm,0%
same,Test J disease control rating,Septoria tritici; 200 ppm,100%
same,Test E disease control rating,Botrytis cinerea; 200 ppm,100%
same,Test D disease control rating,Plasmopara viticola; 200 ppm,4%
same,Test L disease control rating,[3]; 200 ppm,81%
same,Test C disease control rating,Sclerotinia sclerotiorum; 200 ppm,0%
CC(C)Cn1c(-c2ccc(F)cc2)c(Cl)nc(-n2cccn2)c1=O [compound 143],Test B disease control rating,[1]; 200 ppm,0%
same,Test A disease control rating,Pythium aphanidermatum; 200 ppm,0%
same,Test K disease control rating,[2]; 200 ppm,68%
same,Test H disease control rating,Septoria nodorum; 200 ppm,0%
same,Test G disease control rating,Rhizoctonia oryzae; 200 ppm,47%
same,Test F disease control rating,Phytophthora infestans; 200 ppm,0%
same,Test J disease control rating,Septoria tritici; 200 ppm,100%
same,Test E disease control rating,Botrytis cinerea; 200 ppm,99%
same,Test D disease control rating,Plasmopara viticola; 200 ppm,12%
same,Test L disease control rating,[3]; 200 ppm,0%
same,Test C disease control rating,Sclerotinia sclerotiorum; 200 ppm,0%
CC(C)Cn1c(-c2ccc(C#N)cc2)c(Cl)nc(-n2cncn2)c1=O [compound 144],Test B disease control rating,[1]; 200 ppm,0%
same,Test A disease control rating,Pythium aphanidermatum; 200 ppm,0%
same,Test K disease control rating,[2]; 200 ppm,0%
same,Test H disease control rating,Septoria nodorum; 200 ppm,0%
same,Test G disease control rating,Rhizoctonia oryzae; 200 ppm,0%
same,Test F disease control rating,Phytophthora infestans; 200 ppm,0%
same,Test J disease control rating,Septoria tritici; 200 ppm,89%
same,Test E disease control rating,Botrytis cinerea; 200 ppm,0%
same,Test D disease control rating,Plasmopara viticola; 200 ppm,12%
same,Test L disease control rating,[3]; 200 ppm,0%
same,Test C disease control rating,Sclerotinia sclerotiorum; 200 ppm,0%
CC(=O)N=c1c(C#N)nc(C)c(-c2ccccc2)n1CC(C)C [compound 431],Test B disease control rating,[1]; [4],0%
same,Test A disease control rating,Pythium aphanidermatum; [4],88%
same,Test K disease control rating,[2]; [4],32%
same,Test H disease control rating,Septoria nodorum; [4],0%
same,Test G disease control rating,Rhizoctonia oryzae; [4],16%
same,Test F disease control rating,Phytophthora infestans; [4],0%
same,Test J disease control rating,Septoria tritici; [4],0%
same,Test I disease control rating,fusarium graminearium,28%
same,Test E disease control rating,Botrytis cinerea; [4],37%
same,Test D disease control rating,Plasmopara viticola; [4],46%
same,Test L disease control rating,[3]; [4],0%
